Here are results for 91 compounds from a melting point compilation (Tetko et al.; mined from patent text by program, amines drawn as free bases though some values may be those of a salt).

Structures are written as SMILES.

For the compound `CC(=O)c1cscc1O`, the melting point is 44 to 47 °C.
To `CCOC(=O)C(=CN1c2ccc(F)c(F)c2OCC1COC)C(=O)OCC` (stereo unspecified) belongs 81 °C; to `O=C(NC1CCN(CCCC(O)c2ccccc2)CC1)c1ccccc1` (stereo unspecified), 155 to 156 °C.
To `CCOC(=O)C1CCc2c1sc(C)c2C(=O)c1ccc(SC)cc1` (stereo unspecified) belongs 62 to 64 °C; to `CCOC(=O)N1CCN(C2=Nc3cc(Br)ccc3N3CCc4cccc2c43)CC1`, 128 to 131 °C.
The figure for `COc1ccc(/C=C/c2nc3ncccc3c(=O)o2)cc1OC` is 228 to 231 °C; for `CCCCCCCCCCCCCCOc1ccc(CN(C(=O)c2cccnc2)c2ccccc2)cc1` it is 65 to 67 °C.
For `CC(=O)OCC1OC(n2ccc(=O)[nH]c2=O)C(Br)C1OC(C)=O` (stereo unspecified), the melting point is 69 to 77 °C.
The figure for `Cc1cc(Cl)ccc1OCc1ccccc1C(O)c1nccn1C` (stereo unspecified) is 159 to 160 °C; for `CS(=O)C(C)(O)c1ccc(-c2ccccc2)cc1` (stereo unspecified) it is 160 to 162 °C; for `Cc1ccc(C(C)(C)C)c(O)c1-c1nc2cc(S(=O)(=O)C(F)(F)F)ccc2[nH]1` it is 218 to 220 °C.
To `CCOC(=O)C1=C(COCCNc2noc(N)n2)NC(C)=C(C(=O)OC)C1c1ccccc1Cl` (stereo unspecified) belongs 135 °C; to `Cc1nc(Cn2c(=O)sc3cc(F)c(N=C=O)cc32)no1`, 125 to 127 °C.
The figure for `Cc1cccc(-c2n[nH]cc2-c2ccnc(-c3ccc(C#N)cc3)c2)n1` is 198 °C; for `CC(OC(=O)C1(C(=O)O)Oc2ccc(C[C@@H](C)NC[C@H](O)c3cccc(Cl)c3)cc2O1)c1ccccc1` (stereo partly specified) it is 71 to 79 °C.
The compound `COc1c2c(c(OC)c(OC)c1OC)CCC(CCI)CC2` had a melting point of 75 to 82 °C.
The figure for `O=C(O)c1sc(-c2ccc(C(F)(F)F)cc2)nc1CO` is 250 to 252 °C.
`CCOC(=O)C(=NO)c1ccc(Oc2ccccc2)cc1` had a melting point of 131 to 132 °C.
To `COc1cc(I)c(Cl)cc1C(=O)N1Cc2cccn2Cc2ccccc21` belongs 92 to 98 °C; to `COC(=O)/C=C/c1ccc(-c2ccc(C)cc2)o1`, 113 to 115 °C; to `CC(C)COC[C@H](CC(C)C)NC(=O)[C@H]1O[C@@H]1C(=O)O`, 63 °C.
The figure for `CC(C)Nc1nc(Cl)nc(Cl)c1[N+](=O)[O-]` is 65 °C.
The figure for `CCCc1nc2c(N)nc3cccnc3c2n1CCCCN(OC)C(=O)NC(C)C` is 161 to 162 °C; for `CCn1c(=O)c2[nH]c(C(C)C)nc2n(Cc2ccc(Cl)cc2)c1=O` it is 221 to 222 °C; for `Cc1nnc2n1-c1ccccc1C(c1ccc(Cl)cc1)=NC2NN(C(=O)NN)c1ccccc1` (stereo unspecified) it is 175 to 177 °C.
Consider `O=C(NCc1ccc(Cl)cc1)c1cn2c3c(cc(CN4CCOCC4)cc3c1=O)OC(c1ccc(O)cc1)C2` (stereo unspecified), for which the melting point is more than 260 °C.
The figure for `CC(=O)OC1N=C(c2ccccc2Cl)c2nc(Cl)ccc2-n2c1n[nH]c2=O` (stereo unspecified) is 232 to 236 °C; for `CO[C@H](C)C(=O)N[C@H]1CC[C@H](CCN2CCN(c3nccc4c3CCO4)CC2)CC1` it is 159 °C; for `COc1nccc(F)c1NC(=O)OC(C)(C)C` it is 75 to 77 °C.
In the case of `CCc1cc(=O)n2c3c(cc(C(O)(C(F)(F)F)C(F)(F)F)cc13)CCC2`, the melting point is 209 to 210 °C.
As to `COc1cn(C(C)(C)C(=O)N(C)C)nc1-c1ccccc1`, the melting point fell in the range of 114 to 116 °C.
To `O=C1N(CCO)c2ccccc2C(c2ccccc2)N1C1CCN(Cc2cccc(CO)c2)CC1` (stereo unspecified) belongs 185 to 187 °C.
To `Cc1c(C)n(CC2CC2)c2c(OCc3ccc(F)cc3)nncc12` belongs 137 to 138 °C; to `Cc1cc(C)n(-c2nccc(Nc3cccc(C(F)(F)F)c3)n2)n1`, 98.5 to 99.6 °C; to `CCCc1c(OCc2cc(C=CC(=O)O)ccc2OC)ccc(C(C)=O)c1O`, 245 to 246 °C.
To `Cc1c(Cl)cccc1N=C1NCCN1C(=O)c1ccc(C#N)cc1` belongs 224 to 228 °C; to `CCOC(=O)C(=O)NNC(=O)c1cc2sc(C)c(N(C)S(=O)(=O)c3cccs3)c2[nH]1`, 135 °C.
`O=C(NC1CCCCCC1)c1cccc(C(=O)NC2CCCCCC2)c1` came in with a melting point of 285 to 286 °C.
The figure for `N#CC(C#N)=CNc1cc(C(F)(F)F)ccc1Cl` is 166 to 169 °C.
To `COC(=O)/C=C/C(=O)O[C@@H](C)C(=O)N1CCOCC1` belongs 79 to 82 °C.
The figure for `COc1cccc(NC(=O)CN2C(=O)c3ccccc3C2=O)c1` is 171 °C; for `CCC1COC(=O)C(=CC(=O)OC)N1` (stereo unspecified) it is 68 to 70 °C; for `Clc1cnc2c(Cl)cccc2n1` it is 137 to 138 °C.
Consider `O=C(CCCOc1cccc(CNC(=O)c2nc3ccccc3c(=O)[nH]2)c1)NO`, for which the melting point fell in the range of 164 to 168 °C.
The figure for `CN1Cc2c(C(N)=NO)ncn2-c2cccc(Br)c2C1=O` is 265 to 266 °C.
`COC(=O)c1ccc2[nH]c(S)nc2n1`: the melting point fell in the range of 233 to 234 °C.
The figure for `CSc1nnc2n1C=Cc1cc(C)ccc1C2` is 161 to 162 °C; for `CN1N=C2c3ccccc3CCC2C1c1ccncc1` (stereo unspecified) it is 195 to 198 °C.
To `Cn1nnnc1S(=O)(=O)CCCCS(=O)(=O)c1nnnn1C` belongs 192 to 194 °C.
To `C[C@H](NS(=O)(=O)C12CC3CC(CC(C3)C1)C2)C(=O)N1CCC[C@H]1C(=O)Nc1ccccc1` belongs 138 to 141 °C; to `O=C(N[C@H]1CC[C@H](CCN2CCC(c3cccc4c3CCO4)CC2)CC1)c1ccc(Cl)cc1Cl`, 188 °C; to `O=C(c1ccccc1)c1c[nH]c2cnccc12`, 218 to 220 °C.
As for `CC(C)(C)OC(=O)N1CCO[C@@H](c2ccc(C(=O)O)cc2)C1`, the melting point turned out to be 173 °C.
The figure for `O=c1nc(-c2ccc(NCc3ccccc3)nc2)sc2ccccc12` is 194 to 196 °C.
In the case of `O=C(Cn1c(-c2ccc3c(c2)OCO3)nc2ccccc21)c1ccccc1`, the melting point lay in the range of 186 to 189 °C.
Consider `CC(=O)Nc1ccc(I)cc1F`, for which the melting point was 152 to 154 °C.
To `CCCc1nn(-c2ccc(C(F)(F)F)cn2)cc1CCCO` belongs 96 to 97 °C.
To `CCOC(=O)C1=C(COCc2nnn(CCNc3cc(Cl)ncn3)n2)NC(C)=C(C(=O)OC)C1c1cccc(Cl)c1Cl` (stereo unspecified) belongs 160 to 162 °C; to `COc1cc(C=O)ccc1OC(C)c1nc(-c2ccccc2)oc1C` (stereo unspecified), 104 to 105 °C; to `Cc1ccc(C(=O)CC(O)C(=O)O)cc1` (stereo unspecified), 92 to 100 °C.
To `CCCCCC(C(=O)O)c1cccc(Oc2ccccc2C)c1O` (stereo unspecified) belongs 113 to 114 °C; to `COC(=O)C1CCC2C3CCC4CC=CCC4(C)C3C(=O)CC12C` (stereo unspecified), 169 to 175 °C; to `O=C1NCC(Cc2ccc(Br)cc2)O1` (stereo unspecified), 115 to 117 °C.
For the compound `CC1(C)OC(=O)Nc2ccc(-c3cc(F)cc(Br)c3)cc21`, the melting point is 182 to 183 °C.
The figure for `NS(=O)(=O)c1ccc(N2CN(C3CCCCC3)CC2=O)c(Cl)c1` is 188 to 190 °C.
For the compound `Cc1ccc(CC(CC(=O)N2CC3CC=CCC3C2)C(=O)O)cc1` (stereo unspecified), the melting point lay in the range of 140 to 141 °C.
To `CC(=O)n1cc(Cl)c(-c2cccc(C(F)(F)F)c2)c1` belongs 70 to 71.5 °C; to `CCCCCCCCCCCCCCCCCCNC(=O)OCC(CNS(=O)(=O)CCCI)NC(=O)OC` (stereo unspecified), 97 °C.
To `O=c1[nH]c2cc(F)ccc2n(C2CCCCC2)c1=O` belongs 290 °C; to `CC(=O)OCC1=C(C(=O)O)N2C(=O)C(NC(=O)Cn3ccnc3S(C)=O)C2SC1` (stereo unspecified), 220 °C; to `CC(C)Cn1c(CNC(=O)OC(C)(C)C)c(-c2ccc(F)cc2)c2cc(O)ccc2c1=O`, 229 to 230 °C.
The figure for `CO/N=C/C1=NNC(=O)N(/N=C/c2cccnc2)C1` is 237 to 238 °C; for `CS(=O)(=O)CCOC(=O)NCCSc1ccc2nccn2n1` it is 91 to 93 °C; for `COCC#Cc1ccc(CNC(=O)[C@@H](COC)NC(C)=O)cc1` it is 141 to 142 °C.
The compound `COc1ccc2c(NC(C)=O)c(C(=O)c3ccccc3)[nH]c2c1` had a melting point of 144 to 146 °C.
Take `FC(F)(F)c1ccc(C2=NNCC2c2ccccc2)cc1` (stereo unspecified): the melting point fell in the range of 98 to 112 °C.
The figure for `CC(=O)NCCNc1nc(-c2ccccc2)nc2[nH]c(COc3ccccc3)cc12` is 196 to 197 °C.
To `Cc1cccc(SCc2c(CCN(C)C)[nH]c3ccccc23)c1` belongs 75 to 78 °C; to `CCCn1cc(C(=O)NCc2ccc(Cl)cc2)c(=O)c2cc(CCl)sc21`, 186 to 188 °C.
To `COC(=O)NC1CCc2sc(C3=NNC(=O)CC3)cc2C1` (stereo unspecified) belongs 205 to 206 °C; to `CN1CCC(c2cn(S(=O)(=O)c3ccccc3)c3ccc(OS(=O)(=O)c4ccccc4)cc23)CC1`, 123 to 127 °C.
For `CCOC(=O)c1ncn2c1[C@@H]1CCN1C(=O)c1sccc1-2`, the melting point lay within 188 to 191 °C.
The figure for `Cc1cccc(C)c1NC(=O)c1ccc(C#N)cc1` is 185 to 187 °C.
To `O=S(=O)(Cc1ccccc1)c1cccc2c1ccn2-c1ccnc(N[C@H]2CC[C@H](O)CC2)n1` belongs 132 to 134 °C.
To `CC(=O)C(=CS(=O)(=O)NC(C)C)c1cccc([N+](=O)[O-])c1` belongs 153 to 157 °C.
For `COc1cccc(C(CNC(=O)Cc2c(Cl)cncc2Cl)CC(C)C)c1` (stereo unspecified), the melting point is 98 to 99 °C.
The figure for `Nc1cccc(O)c1NC(=O)Nc1cccc(C(F)(F)F)c1` is 188 to 189 °C; for `CCOC(=O)c1nc2ccc(OC)cc2nc1Cl` it is 75 °C; for `N#Cc1ccc(NC(=O)CN2CCC(Cc3ccccc3)CC2)cc1` it is 120 to 124 °C.
The figure for `COc1ccc(C2Sc3ccccc3NC(=O)C2CO)cc1` (stereo unspecified) is 217 °C; for `CCCOc1ccc(S(=O)(=O)NC)cc1C1=NC(=O)C2=NC=NC2=N1` it is 245 to 246 °C.
